In paper PMC2954222, “The structure of Haemophilus influenzae prephenate dehydrogenase suggests unique features of bifunctional TyrA enzymes” (Acta Crystallographica Section F: Structural Biology and …, 2010):

Biological target: T1, HinfPDH (prephenate dehydrogenase component of chorismate mutase/prephenate dehydrogenase TyrA) (Haemophilus influenzae, UniProt P43902)
T1 construct: prephenate dehydrogenase domain, residues 81-377 (Met1-Phe80 excluded); N-terminal His tag removed by TEV, leaving Gly; selenomethionine-labelled; expressed in E. coli; dimer
T1 sequence (P43902 81-377): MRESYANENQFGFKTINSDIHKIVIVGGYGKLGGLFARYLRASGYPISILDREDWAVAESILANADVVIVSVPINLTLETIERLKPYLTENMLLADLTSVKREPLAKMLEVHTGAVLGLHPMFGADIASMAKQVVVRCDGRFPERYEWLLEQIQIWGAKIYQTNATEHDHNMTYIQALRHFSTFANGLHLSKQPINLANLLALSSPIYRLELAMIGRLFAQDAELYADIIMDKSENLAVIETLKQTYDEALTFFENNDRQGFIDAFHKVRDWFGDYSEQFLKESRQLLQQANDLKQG
Assay: X-ray crystal structure, […] A
Format: binding
Details: ligand acquired during expression in E. coli, not added

## N[C@@H](Cc1ccc(O)cc1)C(=O)O [tyrosine]
Ternary complex with NAD+, active site, competitive mode only inferred
  X-ray crystal structure, 2.0 A: could be unambiguously assigned to a tyrosine molecule and an NAD^+ cofactor

## NC(=O)c1ccc[n+]([C@@H]2O[C@H](COP(=O)(O)OP(=O)(O)OC[C@H]3O[C@@H](n4cnc5c(N)ncnc54)[C@H](O)[C@@H]3O)[C@@H](O)[C@H]2O)c1 [NAD^+]
Ternary complex with tyrosine, cofactor site
  X-ray crystal structure, 2.0 A: One tyrosine and one NAD^+ are bound in each monomer
